{"source": "patent US20040127475A1", "about": "“Apparatus and method for delivering compounds to a living organism” (Estrogen Vascular Technology, LLC, priority 1999, published 2004)", "tested_on": "porcine coronary arteries", "test": "17B-estradiol eluting stents in the pig model of instent restenosis, histomorphometric analysis at 30 days", "type": "in vivo", "conditions": "pre-clinical work, same stent, dose and loading process as Example 3", "from_the_text": "In another example, low and high dose 17B-estradiol eluting stents were compared with control stents in a randomized fashion in 18 porcine coronary arteries. Each artery of six pigs were randomly stented with either a control, low-dose or high-dose 17-estradiol eluting stent. All animals were sacrificed at 30 days for histomorphometric analysis.\nThe experiment and animal care conformed to National Institutes of Health and American Heart Association guidelines for the care and use of animals and were approved by the Institutional Animal Care and Use Committee at the Washington Hospital Center. Six domestic juvenile swine weighing 35-45 kg were used. […] Heart rate, blood pressure and electrocardiography were monitored throughout the procedure. […]\nCoronary angiography was performed after intracoronary nitroglycerin (200 μg) administration and recorded on cine film (Phillips Cardiodiagnost; Shelton, Conn.). […]\nThe histopathologist was blinded to the stent types in each artery. […] The vessel injury score was determined by the method described by Kornowski et al. The scoring of endothelialization is based on percent of intimal surface covered by endothelial cells. […]\nData (mean±standard deviation) were analyzed to determine differences between treatment groups using an ANOVA with a post-hoc Bonferroni analysis. […]"}
{"smiles": "C[C@]12CC[C@@H]3c4ccc(O)cc4CC[C@H]3[C@@H]1CC[C@@H]2O", "note": "[17β-estradiol, 17β-Estradiol]", "values": [{"measurement": "reduction in in-stent neo-intimal formation", "result": 40, "unit": "%"}]}
